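Method: 48-hour compound exposure of cells in 96-well plates, five concentrations, linear interpolation of endpoints. GI50: concentration for 50% inhibition of growth. TGI marks complete inhibition of growth.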
Key:
Assay in all cases: inhibition of tumour cell growth, NCI panel, 48 h
[1] = tested on: 786-0 renal
[2] = tested on: A549 NSCLC
[3] = tested on: ACHN renal
[4] = tested on: CAKI-1 renal
[5] = tested on: CCRF-CEM leukemia
[6] = tested on: COLO 205 colon
[7] = tested on: DLD-1 colon
[8] = tested on: DMS 114 small cell lung
[9] = tested on: DMS 273 small cell lung
[10] = tested on: EKVX NSCLC
[11] = tested on: HCC-2998 colon
[12] = tested on: HCT-116 colon
[13] = tested on: HCT-15 colon
[14] = tested on: HOP-18 NSCLC
[15] = tested on: HOP-62 NSCLC
[16] = tested on: HT29 colon
[17] = tested on: IGROV1 ovarian
[18] = tested on: K-562 leukemia
[19] = tested on: KM12 colon
[20] = tested on: KM20L2 colon
[21] = tested on: LOX IMVI melanoma
[22] = tested on: LXFL 529 NSCLC
[23] = tested on: M14 melanoma
[24] = tested on: M19-MEL melanoma
[25] = tested on: MALME-3M melanoma
[26] = tested on: MOLT-4 leukemia
[27] = tested on: NCI-H226 lung
[28] = tested on: NCI-H23 lung
[29] = tested on: NCI-H460 lung
[30] = tested on: NCI-H522 lung
[31] = tested on: OVCAR-3 ovarian
[32] = tested on: OVCAR-4 ovarian
[33] = tested on: OVCAR-5 ovarian
[34] = tested on: OVCAR-8 ovarian
[35] = tested on: RPMI-8226 leukemia
[36] = tested on: RXF 393 renal
[37] = tested on: RXF-631 renal
[38] = tested on: SF-268 CNS
[39] = tested on: SF-295 CNS
[40] = tested on: SF-539 CNS
[41] = tested on: SK-MEL-2 melanoma
[42] = tested on: SK-MEL-28 melanoma
[43] = tested on: SK-MEL-5 melanoma
[44] = tested on: SK-OV-3 ovarian
[45] = tested on: SN12C renal
[46] = tested on: SNB-19 CNS
[47] = tested on: SNB-75 CNS
[48] = tested on: SNB-78 CNS
[49] = tested on: SW-620 colon
[50] = tested on: TK-10 renal
[51] = tested on: U251 CNS
[52] = tested on: UACC-257 melanoma
[53] = tested on: UACC-62 melanoma
[54] = tested on: UO-31 renal
[55] = tested on: XF 498 CNS
[56] = tested on: A498 renal
[57] = tested on: BT-549 breast
[58] = tested on: DU-145 prostate
[59] = tested on: HL-60(TB) leukemia
[60] = tested on: HOP-92 NSCLC
[61] = tested on: HS 578T breast
[62] = tested on: MCF7 breast
[63] = tested on: MDA-MB-231 breast
[64] = tested on: MDA-MB-435
[65] = tested on: MDA-N
[66] = tested on: NCI/ADR-RES ovarian
[67] = tested on: PC-3 prostate
[68] = tested on: SR leukemia
[69] = tested on: T-47D breast

## Cc1ccc(N=C[N-]c2ccc(C)cc2)cc1.Cc1ccc(N=C[N-]c2ccc(C)cc2)cc1.O=C([O-])C(F)(F)F.O=C([O-])C(F)(F)F.[OH3+].[OH3+].[Rh+2].[Rh+2]
[1]
  GI50: 23.5 µM
  TGI: 58.5 µM
[2]
  GI50: > 100 µM
  TGI: > 100 µM
[3]
  GI50: 44.7 µM
  TGI: > 100 µM
[4]
  GI50: > 100 µM
  TGI: > 100 µM
[5]
  GI50: 23.2 µM
  TGI: 55.8 µM
[6]
  GI50: 36.3 µM
  TGI: > 100 µM
[7]
  GI50: 56.7 µM
  TGI: > 100 µM
[8]
  GI50: 38.4 µM
  TGI: > 100 µM
[9]
  GI50: 80.2 µM
  TGI: > 100 µM
[10]
  GI50: 50.2 µM
  TGI: > 100 µM
[11]
  GI50: 36.5 µM
  TGI: > 100 µM
[12]
  GI50: 16.7 µM
  TGI: 35.4 µM
[13]
  GI50: 46.1 µM
  TGI: > 100 µM
[14]
  GI50: 27.7 µM
  TGI: 71.4 µM
[15]
  GI50: > 100 µM
  TGI: > 100 µM
[16]
  GI50: 19.4 µM
  TGI: 42.1 µM
[17]
  GI50: 26.6 µM
  TGI: 72.2 µM
[18]
  GI50: 25.4 µM
  TGI: 67.1 µM
[19]
  GI50: 35 µM
  TGI: > 100 µM
[20]
  GI50: 39.9 µM
  TGI: > 100 µM
[21]
  GI50: 31.1 µM
  TGI: > 100 µM
[22]
  GI50: 28.4 µM
  TGI: 74.2 µM
[23]
  GI50: 26.2 µM
  TGI: 70.3 µM
[24]
  GI50: 33.3 µM
  TGI: 89.4 µM
[25]
  GI50: 28 µM
  TGI: 56.1 µM
[26]
  GI50: 19 µM
  TGI: 42.7 µM
[27]
  GI50: 89.6 µM
  TGI: > 100 µM
[28]
  GI50: 25.9 µM
  TGI: 70.3 µM
[29]
  GI50: > 100 µM
  TGI: > 100 µM
[30]
  GI50: 23.4 µM
  TGI: 53.2 µM
[31]
  GI50: 62 µM
  TGI: > 100 µM
[32]
  GI50: 44.6 µM
  TGI: > 100 µM
[33]
  GI50: > 100 µM
  TGI: > 100 µM
[34]
  GI50: 35.1 µM
  TGI: > 100 µM
[35]
  GI50: 18.9 µM
  TGI: 40.6 µM
[36]
  GI50: 15.1 µM
  TGI: 33.1 µM
[37]
  GI50: > 100 µM
  TGI: > 100 µM
[38]
  GI50: 28.4 µM
  TGI: 81.6 µM
[39]
  GI50: 86.8 µM
  TGI: > 100 µM
[40]
  GI50: 26.6 µM
  TGI: 78.7 µM
[41]
  GI50: 32.6 µM
  TGI: 69.8 µM
[42]
  GI50: 14.1 µM
  TGI: 39.2 µM
[43]
  GI50: 30.7 µM
  TGI: > 100 µM
[44]
  GI50: > 100 µM
  TGI: > 100 µM
[45]
  GI50: 34.9 µM
  TGI: > 100 µM
[46]
  GI50: 58.6 µM
  TGI: > 100 µM
[47]
  GI50: 16.8 µM
  TGI: 53.9 µM
[48]
  GI50: 53.3 µM
  TGI: > 100 µM
[49]
  GI50: 31.9 µM
  TGI: > 100 µM
[50]
  GI50: 50.2 µM
  TGI: > 100 µM
[51]
  GI50: 25.8 µM
  TGI: 72.3 µM
[52]
  GI50: 64.7 µM
  TGI: > 100 µM
[53]
  GI50: 32.4 µM
  TGI: 87.9 µM
[54]
  GI50: > 100 µM
  TGI: > 100 µM
[55]
  GI50: 22.5 µM
  TGI: 59.4 µM

## O=C(NC(=O)c1c(Cl)nc2sccn12)Nc1ccc(Cl)cc1
[1]
  TGI: > 90.1 µM
[56]
  TGI: > 97.6 µM
[2]
  TGI: > 100 µM
[3]
  TGI: > 100 µM
[57]
  TGI: > 81.9 µM
[4]
  TGI: > 100 µM
[5]
  TGI: > 100 µM
[6]
  TGI: > 100 µM
[7]
  TGI: > 100 µM
[8]
  TGI: > 100 µM
[9]
  TGI: > 100 µM
[58]
  TGI: > 100 µM
[10]
  TGI: > 100 µM
[11]
  TGI: > 93.6 µM
[12]
  TGI: > 100 µM
[13]
  TGI: > 100 µM
[59]
  TGI: > 100 µM
[15]
  TGI: 43.3 µM
[60]
  TGI: 66.6 µM
[61]
  TGI: 62.9 µM
[16]
  TGI: > 100 µM
[17]
  TGI: > 100 µM
[18]
  TGI: > 100 µM
[19]
  TGI: > 100 µM
[20]
  TGI: > 100 µM
[21]
  TGI: > 100 µM
[23]
  TGI: > 100 µM
[24]
  TGI: > 100 µM
[25]
  TGI: > 100 µM
[62]
  TGI: > 100 µM
[63]
  TGI: 68.5 µM
[64]
  TGI: > 100 µM
[65]
  TGI: > 100 µM
[26]
  TGI: > 100 µM
[27]
  TGI: 89.7 µM
[28]
  TGI: 88.1 µM
[29]
  TGI: > 100 µM
[30]
  TGI: > 100 µM
[66]
  TGI: > 100 µM
[31]
  TGI: > 100 µM
[32]
  TGI: > 100 µM
[33]
  TGI: > 100 µM
[34]
  TGI: > 100 µM
[67]
  TGI: > 56.2 µM
[35]
  TGI: > 100 µM
[36]
  TGI: 76.2 µM
[37]
  TGI: > 100 µM
[38]
  TGI: 53.9 µM
[39]
  TGI: 70.2 µM
[40]
  TGI: 73.1 µM
[41]
  TGI: > 100 µM
[42]
  TGI: > 100 µM
[43]
  TGI: > 100 µM
[44]
  TGI: 57.5 µM
[45]
  TGI: > 100 µM
[46]
  TGI: 74.1 µM
[47]
  TGI: 47.1 µM
[48]
  TGI: > 100 µM
[68]
  TGI: > 100 µM
[49]
  TGI: > 100 µM
[69]
  TGI: > 100 µM
[50]
  TGI: 89.2 µM
[51]
  TGI: 55.9 µM
[52]
  TGI: > 100 µM
[53]
  TGI: > 100 µM
[54]
  TGI: > 84.4 µM
[55]
  TGI: 42.3 µM

## COc1ccc(Oc2ccccc2N)cc1
[56]
  TGI: > 100 µM
[2]
  TGI: > 100 µM
[3]
  TGI: > 100 µM
[5]
  TGI: > 100 µM
[6]
  TGI: 35.4 µM
[7]
  TGI: > 100 µM
[8]
  TGI: > 100 µM
[9]
  TGI: > 100 µM
[10]
  TGI: > 100 µM
[11]
  TGI: 57.1 µM
[12]
  TGI: > 100 µM
[13]
  TGI: > 100 µM
[59]
  TGI: > 100 µM
[14]
  TGI: > 100 µM
[15]
  TGI: > 100 µM
[60]
  TGI: > 100 µM
[16]
  TGI: > 100 µM
[17]
  TGI: > 100 µM
[18]
  TGI: > 100 µM
[19]
  TGI: > 100 µM
[20]
  TGI: > 100 µM
[21]
  TGI: > 100 µM
[22]
  TGI: > 100 µM
[23]
  TGI: > 100 µM
[24]
  TGI: > 100 µM
[25]
  TGI: > 100 µM
[26]
  TGI: > 100 µM
[27]
  TGI: > 100 µM
[28]
  TGI: > 100 µM
[29]
  TGI: > 100 µM
[31]
  TGI: > 100 µM
[32]
  TGI: > 100 µM
[33]
  TGI: > 100 µM
[34]
  TGI: > 100 µM
[35]
  TGI: > 100 µM
[36]
  TGI: 98.2 µM
[37]
  TGI: > 100 µM
[38]
  TGI: > 100 µM
[39]
  TGI: > 100 µM
[40]
  TGI: 57.3 µM
[41]
  TGI: > 100 µM
[42]
  TGI: 95.1 µM
[43]
  TGI: 33.6 µM
[44]
  TGI: > 100 µM
[45]
  TGI: > 100 µM
[47]
  TGI: > 100 µM
[48]
  TGI: > 100 µM
[68]
  TGI: > 100 µM
[49]
  TGI: > 100 µM
[51]
  TGI: 38.6 µM
[52]
  TGI: > 100 µM
[53]
  TGI: > 100 µM
[54]
  TGI: > 100 µM

Reference: PubChem BioAssay (NCI)
